Reference: the NIST ThermoML archive (doi:10.1021/je4004965)
Numbers after ± are expanded uncertainties.

Columns and labels:
[1] = molar heat capacity at constant pressure; settings: 101.33 kPa, Liquid, Small sample (50 mg) DSC
[2] = 101.33 kPa, Liquid; for speed of sound: Pulse-echo method; for mass density: Vibrating tube method

## CCn1cc[n+](C)c1.F[B-](F)(F)F [1-ethyl-3-methylimidazolium tetrafluoroborate]
[1]; 293.15 K
  molar heat capacity at constant pressure: 303.73 ± 4.7 J/K/mol
[1]; 298.15 K
  molar heat capacity at constant pressure: 305.35 ± 4.7 J/K/mol
[1]; 303.15 K
  molar heat capacity at constant pressure: 306.16 ± 4.7 J/K/mol
[1]; 308.15 K
  molar heat capacity at constant pressure: 308.94 ± 4.8 J/K/mol
[2]; 293.15 K
  speed of sound: 1631.1 ± 2.2 m/s
  mass density: 1283.89 ± 1.7 kg/m3
[2]; 298.15 K
  speed of sound: 1619.4 ± 2.1 m/s
  mass density: 1279.91 ± 1.7 kg/m3
[2]; 303.15 K
  speed of sound: 1607.6 ± 2.1 m/s
  mass density: 1276.26 ± 1.7 kg/m3
[2]; 308.15 K
  speed of sound: 1596.3 ± 2.1 m/s
  mass density: 1272.07 ± 1.7 kg/m3

## Cc1cccnc1 [3-methylpyridine]
[1]; 293.15 K
  molar heat capacity at constant pressure: 156.05 ± 2.4 J/K/mol
[1]; 298.15 K
  molar heat capacity at constant pressure: 158.75 ± 2.5 J/K/mol
[1]; 303.15 K
  molar heat capacity at constant pressure: 160.83 ± 2.5 J/K/mol
[1]; 308.15 K
  molar heat capacity at constant pressure: 160.96 ± 2.5 J/K/mol
[2]; 293.15 K
  speed of sound: 1445.9 ± 1.2 m/s
  mass density: 956.581 ± 1 kg/m3
[2]; 298.15 K
  speed of sound: 1424 ± 1.2 m/s
  mass density: 952.002 ± 1 kg/m3
[2]; 303.15 K
  speed of sound: 1404.1 ± 1.2 m/s
  mass density: 947.449 ± 1 kg/m3
[2]; 308.15 K
  speed of sound: 1384 ± 1.2 m/s
  mass density: 942.831 ± 1 kg/m3

## Cc1ccncc1 [4-methylpyridine]
[1]; 293.15 K
  molar heat capacity at constant pressure: 155.88 ± 2.4 J/K/mol
[1]; 298.15 K
  molar heat capacity at constant pressure: 158.52 ± 2.5 J/K/mol
[1]; 303.15 K
  molar heat capacity at constant pressure: 160.84 ± 2.5 J/K/mol
[1]; 308.15 K
  molar heat capacity at constant pressure: 160.83 ± 2.5 J/K/mol
[2]; 293.15 K
  speed of sound: 1451.1 ± 1.2 m/s
  mass density: 955.099 ± 1 kg/m3
[2]; 298.15 K
  speed of sound: 1431.5 ± 1.2 m/s
  mass density: 950.179 ± 1 kg/m3
[2]; 303.15 K
  speed of sound: 1410.7 ± 1.2 m/s
  mass density: 945.413 ± 1 kg/m3
[2]; 308.15 K
  speed of sound: 1389.9 ± 1.2 m/s
  mass density: 940.821 ± 1 kg/m3

## Cc1ccccc1N [2-methylaniline]
[1]; 293.15 K
  molar heat capacity at constant pressure: 215.96 ± 3.4 J/K/mol
[1]; 298.15 K
  molar heat capacity at constant pressure: 217.16 ± 3.4 J/K/mol
[1]; 303.15 K
  molar heat capacity at constant pressure: 218.43 ± 3.4 J/K/mol
[1]; 308.15 K
  molar heat capacity at constant pressure: 219.52 ± 3.4 J/K/mol
[2]; 293.15 K
  speed of sound: 1622.2 ± 1.3 m/s
  mass density: 998.431 ± 1 kg/m3
[2]; 298.15 K
  speed of sound: 1602.3 ± 1.3 m/s
  mass density: 994.358 ± 1 kg/m3
[2]; 303.15 K
  speed of sound: 1577.7 ± 1.3 m/s
  mass density: 990.23 ± 1 kg/m3
[2]; 308.15 K
  speed of sound: 1558.2 ± 1.3 m/s
  mass density: 986.064 ± 1 kg/m3

## Cc1ccccn1 [2-methylpyridine]
[1]; 293.15 K
  molar heat capacity at constant pressure: 157.07 ± 2.4 J/K/mol
[1]; 298.15 K
  molar heat capacity at constant pressure: 158.86 ± 2.5 J/K/mol
[1]; 303.15 K
  molar heat capacity at constant pressure: 160.14 ± 2.5 J/K/mol
[1]; 308.15 K
  molar heat capacity at constant pressure: 160.66 ± 2.5 J/K/mol
[2]; 293.15 K
  speed of sound: 1400.5 ± 2.1 m/s
  mass density: 944.401 ± 1.2 kg/m3
[2]; 298.15 K
  speed of sound: 1380.1 ± 2.1 m/s
  mass density: 939.802 ± 1.2 kg/m3
[2]; 303.15 K
  speed of sound: 1361 ± 2.1 m/s
  mass density: 935.117 ± 1.2 kg/m3
[2]; 308.15 K
  speed of sound: 1339.9 ± 2.1 m/s
  mass density: 930.414 ± 1.2 kg/m3

## c1ccncc1 [pyridine]
[1]; 293.15 K
  molar heat capacity at constant pressure: 130.49 ± 2 J/K/mol
[1]; 298.15 K
  molar heat capacity at constant pressure: 131.74 ± 2 J/K/mol
[1]; 303.15 K
  molar heat capacity at constant pressure: 132.71 ± 2.1 J/K/mol
[1]; 308.15 K
  molar heat capacity at constant pressure: 133.82 ± 2.1 J/K/mol
[2]; 293.15 K
  speed of sound: 1442 ± 1.2 m/s
  mass density: 983.191 ± 1 kg/m3
[2]; 298.15 K
  speed of sound: 1417.8 ± 1.2 m/s
  mass density: 978.249 ± 1 kg/m3
[2]; 303.15 K
  speed of sound: 1398 ± 1.2 m/s
  mass density: 973.224 ± 1 kg/m3
[2]; 308.15 K
  speed of sound: 1377.1 ± 1.2 m/s
  mass density: 968.166 ± 1 kg/m3
